Reference: ChEMBL document CHEMBL1201862, “PubChem BioAssay data set” (2004)
Where a name gives a salt, the structure may show the parent alone. The source made the active and inactive calls.

Tests used:
[1] = biological target: T1, Heat shock factor protein 1 (Mus musculus, UniProt P38532); assay: enhancement of HSF1-driven luciferase signal – cell-based, NIH3T3, luminescence, dose retest, confirmation (AID 435004); format: functional;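 also: stress induced by proteasome inhibitor MG132 added 30 min after compound; luciferase reporter driven by HSF1 response element in NIH3T3 cells; actives raise luminescence as potentiators of the MG132 stress response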
T1 sequence (P38532 whole entry): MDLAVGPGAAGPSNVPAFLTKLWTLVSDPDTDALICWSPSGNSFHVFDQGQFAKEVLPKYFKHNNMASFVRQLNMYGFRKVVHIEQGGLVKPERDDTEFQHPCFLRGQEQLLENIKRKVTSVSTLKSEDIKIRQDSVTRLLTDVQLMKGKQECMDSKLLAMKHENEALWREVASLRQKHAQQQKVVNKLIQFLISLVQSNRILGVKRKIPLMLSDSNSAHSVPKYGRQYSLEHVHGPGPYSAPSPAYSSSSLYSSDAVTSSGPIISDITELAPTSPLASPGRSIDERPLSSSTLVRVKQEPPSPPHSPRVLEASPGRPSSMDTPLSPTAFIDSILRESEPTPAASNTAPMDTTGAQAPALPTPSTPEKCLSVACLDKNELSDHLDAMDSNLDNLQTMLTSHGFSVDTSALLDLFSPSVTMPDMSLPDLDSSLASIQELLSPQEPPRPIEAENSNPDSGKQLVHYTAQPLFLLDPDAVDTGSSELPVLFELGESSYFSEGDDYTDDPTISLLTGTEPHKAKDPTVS

[2] = biological target: T2, Polyadenylate-binding protein 1 (Homo sapiens, UniProt P11940); assay: MLLE binding blockers, Cy5 peptide tracer – biochemical, fluorescence polarization, Cy5-PAM2 peptide, secondary, miRNA deadenylation inhibitor project, dose response (AID 602260); format: functional; conditions: read-out: IC50_Mean
[3] = biological target: T2, Polyadenylate-binding protein 1; assay: MLLE domain peptide-binding blockers, IC50 – biochemical, fluorescence polarization, FITC-PAM2 peptide, dose response (AID 602259); format: functional; conditions: read-out: IC50_Mean
[4] = biological target: T3, Corticotropin-releasing factor receptor 2/Corticotropin-releasing factor-binding protein (Homo sapiens, UniProt P24387+Q13324); assay: activators of CRF receptor 2 with binding protein – uHTS hits, confirmation (AID 602473); format: functional; conditions: read-out: EC50_Mean
T3 sequence (Q13324 whole entry): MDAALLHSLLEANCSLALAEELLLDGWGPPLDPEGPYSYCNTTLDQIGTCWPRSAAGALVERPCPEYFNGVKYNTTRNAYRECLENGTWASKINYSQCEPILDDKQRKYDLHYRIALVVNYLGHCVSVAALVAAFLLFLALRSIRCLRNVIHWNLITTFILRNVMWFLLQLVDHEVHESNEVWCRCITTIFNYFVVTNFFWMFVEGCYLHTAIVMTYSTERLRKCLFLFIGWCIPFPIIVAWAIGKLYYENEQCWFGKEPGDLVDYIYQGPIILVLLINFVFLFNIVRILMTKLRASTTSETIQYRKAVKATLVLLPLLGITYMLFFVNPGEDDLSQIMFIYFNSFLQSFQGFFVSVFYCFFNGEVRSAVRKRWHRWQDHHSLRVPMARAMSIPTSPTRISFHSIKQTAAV
T3 sequence (P24387 whole entry): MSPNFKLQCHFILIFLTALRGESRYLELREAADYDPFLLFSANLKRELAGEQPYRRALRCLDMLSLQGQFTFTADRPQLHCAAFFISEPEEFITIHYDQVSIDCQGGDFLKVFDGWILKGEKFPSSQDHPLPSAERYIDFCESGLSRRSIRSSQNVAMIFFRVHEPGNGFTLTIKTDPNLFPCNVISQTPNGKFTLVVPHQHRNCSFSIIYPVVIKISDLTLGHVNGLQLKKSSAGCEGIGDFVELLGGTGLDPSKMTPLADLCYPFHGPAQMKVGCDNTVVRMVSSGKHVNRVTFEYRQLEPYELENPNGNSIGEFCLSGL

[5] = biological target: T3, Corticotropin-releasing factor receptor 2/Corticotropin-releasing factor-binding protein; assay: Dose Response confirmation of uHTS hits for small molecule antagonists of the CRF-binding protein and CRF-R2 receptor complex.; format: functional; conditions: read-out: IC50_Mean
[6] = NIH-3T3 fibroblast cytotoxicity, dose response, cytotoxicity control, cell-based, fluorescence, Alamar Blue, secondary assay (AID 2327); format: functional;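 also: NIH-3T3 mouse fibroblasts cultured with fluconazole at 8 µg/mL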
[7] = fluconazole-exposed Candida albicans growth modulators – fluorescence, retest, confirmation (AID 2467); format: functional, cell-based
[8] = non-specific 3'UTR reporter inhibition in Clone20-Shn3RL – cell-based, Renilla luciferase, cherry-picked, counter-screen for Shn3 inhibitor project, dose response (AID 624133); format: functional
[9] = system: INS1; assay: INS-1E survival protection against cytokine death – cell-based, luminescence, retest, dose response (AID 449756); format: functional; conditions: Rattus norvegicus;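 also: cell death triggered by IL-1 beta plus TNF-alpha plus IFN-gamma mixture; protective hits raise ATP signal compared with cytokine alone wells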
[10] = loss of viability in HepG2 cells – cell-based, CellTiter-Glo, cherry-picked, cytotoxicity control for Shn3 inhibitor project, dose response (AID 624134); format: functional
[11] = reduction of Shn3 3'UTR-driven luciferase in osteoblasts – cell-based, Clone20 osteoblasts, firefly luciferase, cherry-picked, dose response (AID 624132); format: functional;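 also: firefly luciferase luminescence from reporter carrying the Shn3 3'UTR in osteoblasts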
[12] = biological target: T1, Heat shock factor protein 1; assay: decrease of HSF1-responsive luciferase luminescence – cell-based, NIH3T3, dose retest, confirmation (AID 2382); format: functional;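 also: NIH3T3 fibroblasts with HSF1-driven luciferase reporter stressed by proteasome inhibitor MG132; luminescence from HSF1-driven luciferase expression after 8 hours of MG132 stress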
[13] = alpha-synuclein stem-loop luciferase translation blockers – H4 neuroglioma cells, luminescence, confirmation (AID 1988); format: functional, cell-based
[14] = luciferase reporter signal suppression in cells – H4 neuroglioma cells, luminescence, dose response (AID 1990); format: functional, cell-based
[15] = Luminescence Cell-Based Dose Response HTS to Identify Inhibitors of 5'UTR Stem-Loop Driven Prion Protein mRNA Translation in H4 Neuroglioblastoma Cells. [Related pubchem assays: 1827 (Project Summary), 1813 (Primary HTS)]; format: functional
[16] = system: Streptococcus sp. 'group A'; assay: Streptococcus pyogenes SK(-)GAS viability under kanamycin – luminescence, BacTiterGlo, confirmation, counter-screen for streptokinase expression inhibitor project, dose response (AID 1900); format: functional, organism-based
[17] = system: Streptococcus; assay: GAS UMAA2166 growth inhibition – luminescence, BacTiterGlo, counter-screen for streptokinase expression inhibitor project, dose response (AID 1915); format: functional, organism-based;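 also: potency for reduction of bacterial viability or growth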
[18] = biological target: T4, Streptokinase A (Streptococcus pyogenes serotype M1, UniProt P10520); assay: viability-normalized secreted streptokinase activity reduction – plasminogen activation absorbance, OD405, dose response (AID 1914); format: functional, Streptococcus pyogenes M1 GAS;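 also: secreted streptokinase activity via plasminogen activation per viability signal from cell pellet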
T4 sequence (P10520 whole entry): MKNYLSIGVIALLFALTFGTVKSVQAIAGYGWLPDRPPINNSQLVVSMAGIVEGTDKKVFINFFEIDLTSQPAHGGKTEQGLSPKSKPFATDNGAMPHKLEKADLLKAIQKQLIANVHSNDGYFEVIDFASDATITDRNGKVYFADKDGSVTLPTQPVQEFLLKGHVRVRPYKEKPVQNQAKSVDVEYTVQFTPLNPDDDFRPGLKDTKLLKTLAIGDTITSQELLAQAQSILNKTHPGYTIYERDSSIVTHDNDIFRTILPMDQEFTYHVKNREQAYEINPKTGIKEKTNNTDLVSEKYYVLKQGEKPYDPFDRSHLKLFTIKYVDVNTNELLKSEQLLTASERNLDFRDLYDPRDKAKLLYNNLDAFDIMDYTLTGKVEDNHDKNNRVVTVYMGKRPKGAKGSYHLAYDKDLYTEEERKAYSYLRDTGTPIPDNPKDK

[19] = biological target: Cytochrome P450 2C9 (Homo sapiens, UniProt P11712)
[20] = biological target: Cytochrome P450 2C19 (Homo sapiens, UniProt P33261); assay: Cytochrome panel assay with activity outcomes. Panel member name: p450-cyp2c19 Compounds with AC50 equal or less than 10 uM are considered active; format: functional
[21] = Luminescence Cell-Based Dose Retest to Confirm Inhibitors of Cancer Stem Cells. [Related pubchem assays (depositor defined):AID2717, AID2721]; format: functional; conditions: Homo sapiens

T2 sequence (P11940 whole entry, the tested form may be a part): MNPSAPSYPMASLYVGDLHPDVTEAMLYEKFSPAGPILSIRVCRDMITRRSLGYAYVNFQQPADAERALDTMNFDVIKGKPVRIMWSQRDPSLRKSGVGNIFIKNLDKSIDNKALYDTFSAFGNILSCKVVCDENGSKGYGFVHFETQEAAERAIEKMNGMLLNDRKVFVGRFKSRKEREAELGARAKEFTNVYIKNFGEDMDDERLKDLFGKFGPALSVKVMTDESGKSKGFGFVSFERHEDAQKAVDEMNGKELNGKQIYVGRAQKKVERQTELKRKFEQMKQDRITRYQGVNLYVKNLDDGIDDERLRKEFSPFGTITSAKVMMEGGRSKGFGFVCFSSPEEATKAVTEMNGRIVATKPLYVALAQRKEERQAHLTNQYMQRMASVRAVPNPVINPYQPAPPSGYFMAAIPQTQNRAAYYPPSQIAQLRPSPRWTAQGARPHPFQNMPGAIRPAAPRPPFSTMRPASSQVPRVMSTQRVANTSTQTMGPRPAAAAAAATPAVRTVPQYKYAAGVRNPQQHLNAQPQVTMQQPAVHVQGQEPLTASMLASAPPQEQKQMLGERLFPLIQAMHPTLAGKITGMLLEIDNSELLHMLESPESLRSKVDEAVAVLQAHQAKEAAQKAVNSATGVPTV
Sequence of Cytochrome P450 2C9 (P11712 whole entry): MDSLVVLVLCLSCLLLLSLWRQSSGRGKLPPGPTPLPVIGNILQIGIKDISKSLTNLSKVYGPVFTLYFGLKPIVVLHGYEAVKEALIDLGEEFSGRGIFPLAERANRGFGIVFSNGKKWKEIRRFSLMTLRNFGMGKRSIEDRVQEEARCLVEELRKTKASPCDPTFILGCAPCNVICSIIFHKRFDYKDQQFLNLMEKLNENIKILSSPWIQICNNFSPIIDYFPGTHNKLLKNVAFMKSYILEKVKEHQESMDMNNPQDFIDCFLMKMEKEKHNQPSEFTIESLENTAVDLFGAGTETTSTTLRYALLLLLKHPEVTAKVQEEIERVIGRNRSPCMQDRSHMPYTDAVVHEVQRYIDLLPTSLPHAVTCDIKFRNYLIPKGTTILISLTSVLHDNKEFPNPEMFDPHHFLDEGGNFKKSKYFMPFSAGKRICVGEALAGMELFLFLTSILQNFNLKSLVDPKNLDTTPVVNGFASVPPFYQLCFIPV
Sequence of Cytochrome P450 2C19 (P33261 whole entry): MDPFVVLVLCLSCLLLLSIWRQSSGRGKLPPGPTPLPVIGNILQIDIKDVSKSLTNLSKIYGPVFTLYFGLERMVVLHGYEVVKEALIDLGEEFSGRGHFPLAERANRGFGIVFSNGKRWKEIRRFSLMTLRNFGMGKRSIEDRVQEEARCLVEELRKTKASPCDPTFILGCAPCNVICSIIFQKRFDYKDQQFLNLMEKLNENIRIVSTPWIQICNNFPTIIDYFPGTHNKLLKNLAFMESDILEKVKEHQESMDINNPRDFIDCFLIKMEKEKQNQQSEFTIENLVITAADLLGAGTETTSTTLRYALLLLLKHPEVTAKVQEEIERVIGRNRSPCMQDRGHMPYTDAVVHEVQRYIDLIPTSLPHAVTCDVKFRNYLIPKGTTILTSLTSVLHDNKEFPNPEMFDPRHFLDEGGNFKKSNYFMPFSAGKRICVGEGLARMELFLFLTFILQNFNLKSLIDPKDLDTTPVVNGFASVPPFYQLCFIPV

Cc1ccc2[nH]c(SCC(=O)NCc3ccc(F)cc3)nc2c1
EC50 [1]: > 260 µM (inactive)

O=C(NC(=S)Nc1cccnc1)c1cccs1
IC50 [2]: > 66 µM (inactive)
IC50 [3]: > 66 µM (inactive)

C=CCN1C(=O)NC(=O)/C(=C(/CC)Nc2ccccc2NC(=O)CC)C1=O
EC50 [4]: > 53 µM (inactive)
IC50 [5]: > 47.1 µM (inactive)

O=C(N/N=C/c1cc(Br)c(Br)o1)c1ccc2c(c1)OCCO2
EC50 [6]: > 150 µM (inconclusive)
EC50 [7]: 3.24 µM (active)

NC(=O)CCN1CCN(CCOC2Cc3cc(Cl)ccc3Sc3ccccc32)CC1 (stereo not given)
EC50 [1]: > 260 µM (inactive)

CCOc1ncccc1C(=O)NCCc1c[nH]c2ccccc12
EC50 [1]: > 260 µM (inactive)

COc1ccc(-c2cn3cc(C)ccc3n2)cc1OC
EC50 [1]: > 260 µM (inactive)

COCC1CCCCN1C(=O)c1cc(COc2ccc3ncccc3c2)on1 (stereo not given)
AC50 [8]: 3.12 µM (active)
AC50 [9]: 3.15 µM (active)
AC50 [10]: 28.9 µM (active)
AC50 [11]: 0.33 µM (active)
EC50 [12]: > 195 µM (not active)

CCO/C(O)=C1\C(C)=Nc2nc3ccccc3n2C1c1ccncc1 (stereo not given)
EC50 [13]: > 120 µM (not active)
EC50 [1]: > 260 µM (inactive)
EC50 [14]: > 120 µM (not active)
EC50 [15]: > 120 µM (not active)

COC(=O)CC(NC(=O)c1ccc(C)cc1)c1ccc2c(c1)OCO2 (stereo not given)
EC50 [4]: > 53 µM (inactive)
IC50 [5]: > 47.1 µM (inactive)

CCN(CC)S(=O)(=O)c1cccc(C(=O)Nc2ccc3c(c2)OCO3)c1
EC50 [4]: > 53 µM (inactive)
IC50 [5]: > 47.1 µM (inactive)

O=C(NC(=S)Nc1cccc(O)c1)c1cncc(Br)c1
IC50 [2]: > 66 µM (inactive)
IC50 [3]: > 66 µM (inactive)

CN(C/C=C/C#CC(C)(C)C)Cc1cccc2ccccc12 [TERBINAFINE HYDROCHLORIDE]
EC50 [6]: > 160 µM (inactive)
EC50 [7]: 2.94 µM (inconclusive)

Cc1ccc2nc(N3C(=O)C(O)=C(C(=O)c4ccco4)C3c3cccc(O)c3)sc2c1 (stereo not given)
EC50 [4]: > 53 µM (inactive)
IC50 [5]: < 0.368 µM (active)

CC(=O)C1(O)CCC2C3CC(C)C4=CC(=O)C=CC4(C)C3(F)C(O)CC21C (stereo not given)
EC50 [4]: > 53 µM (inactive)
IC50 [5]: > 47.1 µM (inactive)

Cc1ccc(S(=O)(=O)N2CCN(c3ncnc4sccc34)CC2)cc1
AC50 [8]: 5.22 µM (active)
AC50 [9]: 5.64 µM (active)
AC50 [10]: 6.76 µM (active)
AC50 [11]: 2.72 µM (active)

Cc1cccc(C)c1OC1(c2ccccc2)OC(=O)c2ccccc21 (stereo not given)
EC50 [16]: 18.4 µM (active)
EC50 [17]: > 150 µM (not active)
EC50 [18]: 12.2 µM (active)

COC(=O)c1ccc(CSc2nc3ccccc3c(=O)n2-c2cccc(OC)c2)o1
EC50 [4]: > 53 µM (inactive)
IC50 [5]: 4.06 µM (active)

O=[N+]([O-])c1cc2c(c(CSc3nnc(Nc4ccccc4)s3)c1)OCOC2
AC50 [8]: 9.43 µM (active)
AC50 [10]: 55.6 µM (active)
AC50 [11]: 3.62 µM (active)

Cn1cc([N+](=O)[O-])c(C(=O)Nc2ccc(-c3nc4ccccc4[nH]3)cc2)n1
EC50 [1]: 32 µM (active)

O=C(NCCNC(=O)C(c1ccccc1)c1ccccc1)c1ccco1
EC50 [6]: > 150 µM (inactive)
EC50 [7]: > 38 µM (not active)

Oc1ccnc2c(Cl)cccc12
EC50 [4]: > 53 µM (inactive)
IC50 [5]: > 47.1 µM (inactive)

Cc1cc(F)ccc1NCc1cc2c(cc1[N+](=O)[O-])OCO2
EC50 [1]: > 260 µM (inactive)

COc1ccc2sc(-c3ccc(S(C)(=O)=O)cc3)c(C(=O)NCCc3c[nH]c4ccccc34)c2c1
EC50 [4]: > 53 µM (inactive)
IC50 [5]: > 47.1 µM (inactive)

Cc1cccc(N2CCN(S(=O)(=O)c3ccc(Cl)nc3)CC2C)c1 (stereo not given)
EC50 [4]: > 53 µM (inactive)
IC50 [5]: > 47.1 µM (inactive)

CCOC(=O)c1cc(C#N)c(N2CCN(c3ccc(OC)cc3)CC2)nc1O
EC50 [6]: > 150 µM (inconclusive)
EC50 [7]: 0.046 µM (active)

COc1ccc2nc(N3C(=O)CNC3=S)sc2c1
EC50 [16]: 3.47 µM (active)
EC50 [17]: > 150 µM (not active)
EC50 [18]: > 150 µM (not active)

CCOC(=O)c1ccc(NC(=O)c2sc3nc4n(c(=O)c3c2C)CCC4)cc1
EC50 [16]: 1.48 µM (active)
EC50 [17]: 20.2 µM (active)
EC50 [18]: > 150 µM (not active)

CC12CCC(C(=O)Nc3ncc([N+](=O)[O-])s3)(OC1=O)C2(C)C (stereo not given)
EC50 [6]: > 160 µM (inactive)
AC50 [19]: 11.2 µM (inconclusive)
EC50 [4]: > 53 µM (inactive)
AC50 [20]: inconclusive
IC50 [5]: > 47.1 µM (inactive)
EC50 [7]: 0.629 µM (active)

CC1(C)CC(=O)C2=C(C1)N(Cc1ccco1)C(=O)C2(O)C(F)(F)F (stereo not given)
EC50 [4]: > 53 µM (inactive)
IC50 [5]: > 47.1 µM (inactive)

O=C(NCc1cccnc1)c1ccc(-c2ccc(F)c(F)c2)c2ccoc12
AC50 [8]: 4.19 µM (active)
AC50 [10]: 6.48 µM (active)
AC50 [11]: 3.48 µM (active)

O=C(NNC(=O)c1cccc(S(=O)(=O)N2CCCCC2)c1)c1ccccc1
EC50 [4]: > 53 µM (inactive)
IC50 [5]: > 47.1 µM (inactive)

CC[C@H](C)[C@H]1O[C@]2(CC[C@@H]1C)C[C@@H]1C[C@@H](CC=C(C)[C@@H](O[C@H]3C[C@H](OC)[C@@H](O[C@H]4C[C@H](OC)[C@@H](O)[C@H](C)O4)[C@H](C)O3)[C@@H](C)C=CC=C3CO[C@@H]4[C@H](O)C(C)=C[C@@H](C(=O)O1)[C@]34O)O2
AC50 [8]: 20.3 µM (active)
AC50 [21]: 1.22 µM (active)
AC50 [10]: 31.2 µM (active)
AC50 [11]: 6.32 µM (active)

COc1ccc(CCNC(=O)COc2ccc(N(C)S(=O)(=O)c3ccc(C)cc3)cc2)cc1OC
EC50 [4]: > 53 µM (inactive)
IC50 [5]: > 47.1 µM (inactive)
